Measured values from patent publication US8586579B2, “Anellated pyridine compounds” (Hoffmann-La Roche Inc., priority 2010, dated 2013).
pKi: −log10 of the molar value. Where two headings read alike, the source gives them in different places.

How the values were obtained:
[1] = target: human 5-HT2A receptor (Homo sapiens (Human), UniProt P28223); assay: Radioligand binding assay, [3H]-ketanserin, human 5-HT2A receptor
Method in brief: (§1)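 Incubation was 1 h at RT, using 1.1 nM [3H]-ketanserin at 5-HT2A or 0.5 nM [3H]-spiperone at D3, on membranes of transiently transfected HEK293 EBNA cells. Nonspecific binding was set with 10 μM unlabelled spiperone.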

[2] = target: human D2 receptor (Homo sapiens (Human), UniProt P14416); assay: Radioligand binding assay, [3H]-spiperone, human D2 receptor; conditions: membranes of HEK293 EBNA cells expressing human D2; 0.7 nM [3H]-spiperone
Chain of human D2 receptor (P14416 whole entry): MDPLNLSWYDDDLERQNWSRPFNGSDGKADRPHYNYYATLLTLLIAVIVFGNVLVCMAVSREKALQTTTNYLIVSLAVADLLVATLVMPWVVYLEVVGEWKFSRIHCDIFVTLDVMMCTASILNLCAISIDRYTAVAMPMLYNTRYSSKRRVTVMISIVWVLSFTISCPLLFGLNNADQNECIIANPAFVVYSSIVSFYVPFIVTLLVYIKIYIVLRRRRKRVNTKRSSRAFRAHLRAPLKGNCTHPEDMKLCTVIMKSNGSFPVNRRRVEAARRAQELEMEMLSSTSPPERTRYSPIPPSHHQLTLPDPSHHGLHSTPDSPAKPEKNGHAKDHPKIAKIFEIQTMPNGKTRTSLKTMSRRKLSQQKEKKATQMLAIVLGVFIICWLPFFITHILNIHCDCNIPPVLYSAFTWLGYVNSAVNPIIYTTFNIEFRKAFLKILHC
Method in brief: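 Competition binding used ~0.7 nM [3H]-spiperone, 1 h at room temperature, pH 7.4 Tris/salt buffer, on transiently transfected HEK293 EBNA membranes bearing human D2.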

[3] = target: human D3 receptor (Homo sapiens (Human), UniProt P35462); assay: Radioligand binding assay, [3H]-spiperone, human D3 receptor; conditions: membranes of HEK293 EBNA cells expressing human D3; 0.5 nM [3H]-spiperone
Chain of human D3 receptor (P35462 whole entry): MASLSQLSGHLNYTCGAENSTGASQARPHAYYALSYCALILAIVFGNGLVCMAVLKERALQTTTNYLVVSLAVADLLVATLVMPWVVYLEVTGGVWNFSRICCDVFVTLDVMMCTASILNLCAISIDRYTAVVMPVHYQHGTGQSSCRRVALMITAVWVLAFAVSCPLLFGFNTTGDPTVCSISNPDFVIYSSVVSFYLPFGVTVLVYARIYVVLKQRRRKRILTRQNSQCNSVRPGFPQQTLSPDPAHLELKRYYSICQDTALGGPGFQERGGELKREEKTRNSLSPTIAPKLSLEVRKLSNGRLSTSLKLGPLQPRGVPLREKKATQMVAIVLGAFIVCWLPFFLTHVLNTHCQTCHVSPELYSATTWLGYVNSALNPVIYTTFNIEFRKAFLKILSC
Method in brief: as §1

[4] = membranes of HEK293 EBNA cells expressing human 5-HT2A, 1.1 nM [3H]-ketanserin

Chain of human 5-HT2A receptor (P28223 whole entry): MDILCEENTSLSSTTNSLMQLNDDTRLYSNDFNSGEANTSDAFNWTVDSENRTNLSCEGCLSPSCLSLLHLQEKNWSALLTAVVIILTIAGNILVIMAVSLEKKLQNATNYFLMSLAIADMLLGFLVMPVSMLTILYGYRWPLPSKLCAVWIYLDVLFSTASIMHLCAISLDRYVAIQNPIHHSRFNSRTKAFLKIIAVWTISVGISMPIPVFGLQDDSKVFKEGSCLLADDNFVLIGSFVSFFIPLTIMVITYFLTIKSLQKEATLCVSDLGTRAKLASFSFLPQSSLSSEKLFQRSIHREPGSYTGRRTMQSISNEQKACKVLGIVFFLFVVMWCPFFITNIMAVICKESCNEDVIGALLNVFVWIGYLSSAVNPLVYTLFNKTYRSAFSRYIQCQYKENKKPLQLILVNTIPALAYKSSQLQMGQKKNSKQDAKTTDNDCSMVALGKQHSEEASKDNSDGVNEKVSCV

| Structure (SMILES) | pKi [1] | pKi [2] | pKi [3] | melting point [°C] | pKi [1, 4] |
| --- | --- | --- | --- | --- | --- |
| O=C(N[C@H]1CC[C@H](CCN2CCN(c3nccc4c3CCO4)CC2)CC1)c1ccc(N2CCOCC2)nc1 [Example 119, trans-N-(4-{2-[4-(2,3-Dihydro-furo[3,2-c]pyridin-4-yl)-piperazin-1-yl]-ethyl}-cyclohexyl)-6-morpholin-4-yl-nicotinamide] | 7.81 | 6.00 | 7.35 | 222 | – |
| CN(C)S(=O)(=O)N[C@H]1CC[C@H](CCN2CCN(c3nccc4c3CCO4)CC2)CC1 [Example 66, N′-trans-(4-{2-[4-(2,3-dihydro-furo[3,2-c]pyridin-4-yl)-piperazin-1-yl]-ethyl}-cyclohexyl)-N,N-dimethyl-sulfamide] | – | 6.11 | 7.60 | 139.5 | 7.94 |
| O=C(N[C@H]1CC[C@H](CCN2CCN(c3nccc4c3CCO4)CC2)CC1)c1ccc(-c2cccnc2)cc1 [Example 120, trans-N-(4-{2-[4-(2,3-Dihydro-furo[3,2-c]pyridin-4-yl)-piperazin-1-yl]-ethyl}-cyclohexyl)-4-pyridin-3-yl-benzamide] | – | 6.65 | 7.79 | 218 | 7.91 |
| CS(=O)(=O)CC(=O)N[C@H]1CC[C@H](CCN2CCN(c3nccc4c3CCO4)CC2)CC1 [Example 39, trans-N-(4-{2-[4-(2,3-Dihydrofuro[3,2-c]pyridin-4-yl)-piperazin-1-yl]-ethyl}-cyclohexyl)-methylsulfonyl-acetamide] | 7.79 | 5.99 | 8.01 | 260.5 | – |
| O=C(CCC(F)(F)F)N[C@H]1CC[C@H](CCN2CCN(c3nccc4c3CCO4)CC2)CC1 [Example 95, trans-N-(4-{2-[4-(2,3-Dihydro-furo[3,2-c]pyridin-4-yl)-piperazin-1-yl]-ethyl}-cyclohexyl)-4,4,4-trifluoro-butyramide] | 7.53 | 5.90 | 7.70 | 195.5 | – |
| CS(=O)(=O)N[C@H]1CC[C@H](CCN2CCN(c3nccc4c3CCO4)CC2)CC1 [Example 48, trans-N-(4-{2-[4-(2,3-Dihydro-furo[3,2-c]pyridin-4-yl)-piperazin-1-yl]-ethyl}-cyclohexyl)-methanesulfonamide] | – | 5.90 | 7.50 | 220 | 7.66 |
| O=C(N[C@H]1CC[C@H](CCN2CCN(c3nccc4c3CCO4)CC2)CC1)C1(O)CC1 [Example 58, 1-Hydroxy-cyclopropanecarboxylic acid trans-(4-{2-[4-(2,3-dihydro-furo[3,2-c]pyridin-4-yl)-piperazin-1-yl]-ethyl}-cyclohexyl)-amide] | – | 6.23 | 7.57 | 174.5 | 8.23 |
| Cc1cc2c(c(N3CCN(CC[C@H]4CC[C@H](NC(=O)CC5CCOCC5)CC4)CC3)n1)CCO2 [Example 102, trans-N-(4-{2-[4-(6-Methyl-2,3-dihydro-furo[3,2-c]pyridin-4-yl)-piperazin-1-yl]-ethyl}-cyclohexyl)-2-(tetrahydro-pyran-4-yl)-acetamide] | – | 5.71 | 7.73 | 218.5 | 6.71 |
| CCC(C)C(=O)N[C@H]1CC[C@H](CCN2CCN(c3nccc4c3CCO4)CC2)CC1 (mixture of isomers) [Example 76, trans-N-(4-{2-[4-(2,3-Dihydro-furo[3,2-c]pyridin-4-yl)-piperazin-1-yl]-ethyl}-cyclohexyl)-rac-2-methyl-butyramide] | – | 6.15 | 7.60 | 205.5 | 7.88 |
| O=C(N[C@H]1CC[C@H](CCN2CCN(c3nccc4c3CCO4)CC2)CC1)c1ccc(-n2cccc2)cc1 [Example 133, trans-N-(4-{2-[4-(2,3-Dihydro-furo[3,2-c]pyridin-4-yl)-piperazin-1-yl]-ethyl}-cyclohexyl)-4-pyrrol-1-yl-benzamide] | – | 6.79 | 7.61 | 234 | 7.62 |
